Source: patent US12390437B2, “Itaconic acid derivatives and uses thereof intreating an inflammatory disease or a disease associated with an undesirable immune response” (Sitryx Therapeutics Limited, priority 2019, dated 2025)
Like-named read-outs stand apart in the source and are kept apart here.

What was measured:
[1] = test system: IL-1β cytokine output from THP-1s; assay: THP-1 AlphaLISA IL-1β cytokine assay; type: cell-based, human; conditions: LPS 24 hr then Nigericin 1 hour, read-out: IL-1β (IC50)
Experimental: Measuring Inhibitory Effects on IL-1β and IL-6 Cytokine Output from THP-1s
The cytokine inhibition profiles of compounds of formula (IW-1) were determined in a differentiated THP-1 cell assay. All assays were performed in RPMI-1640 growth medium (Gibco), supplemented with 10% fetal bovine serum (FBS; Gibco), 1% penicillin-streptomycin and 1% sodium pyruvate unless specified otherwise. The IL-1β and IL-6 cytokine inhibition assays were each run in a background of differentiated THP-1 cells as described below. All reagents described were from Sigma-Aldrich unless specified otherwise. Compounds were prepared as 10 mM DMSO stocks.
THP-1 cells were expanded as a suspension up to 80% confluence in appropriate growth medium. Cells were harvested, suspended, and treated with an appropriate concentration of phorbol 12-myristate 13-acetate (PMA) over a 72 hr period (37° C./5% CO2).
Following 72 hrs of THP-1 cell incubation, cellular medium was removed and replaced with fresh growth media containing 1% of FBS. Working concentrations of compounds were prepared separately in 10% FBS treated growth medium and pre-incubated with the cells for 30 minutes (37° C./5% CO2). Following the 30 minute compound pre-incubation, THP-1s were treated with an appropriate concentration of LPS and the THP-1s were subsequently incubated for a 24 hr period (37° C./5% CO2). An appropriate final concentration of Nigericin was then dispensed into the THP-1 plates and incubated for 1 hour (37° C./5% CO2) before THP-1 supernatants were harvested and collected in separate polypropylene 96-well holding plates.
Reagents from each of the IL-1β and IL-6 commercial kits (Perkin Elmer) were prepared and run according to the manufacturer's instructions. Subsequently, fluorescence signal detection in a microplate reader was measured (EnVision® Multilabel Reader, Perkin Elmer).
Percentage inhibition was calculated per cytokine by normalising the sample data to the high and low controls used within each plate (+/−LPS respectively). Percentage inhibition was then plotted against compound concentration and the 50% inhibitory concentration (IC50) was determined from the resultant concentration-response curve.

[2] = Mouse pharmacokinetic study, intravenous dosing; type: in vivo; conditions: male, C57BL/6, mouse, iv, plasma, 10 mg/kg i.v., read-out: Parent compound concentration following intravenous administration
Experimental: Pharmacokinetic studies were carried out in 6-8-week-old male C57BL/6 mice having free access to food and water. Intravenous dosing was conducted at 10 mg/kg (5 mL/kg; vehicle: 10% DMSO-90% (25% HP-13-CD in water)) via tail vein injection, with sampling at 3 min, 8 min, 15 min, 30 min, 1, 2, 4, 6 and 8 hours, i.e., 9 time points in total (N=3/time point), using semi-serial bleeding for plasma. Oral compound administration, via gavage, was carried out at 100 mg/kg (10 mL/kg; vehicle: 5% DMSO-95% (0.5% HPMC+0.1% Tween 80 in water)), with sampling at 5 min, 15 min, 30 min, 1, 2, 4, 6, 8 and 24 hours, i.e., 9 time points in total (N=3/time point), using semi-serial bleeding for plasma.
For both intravenous and oral routes, the mice were restrained manually at the designated time points, with ca. 110 μL of blood being taken into K2EDTA tubes via the facial vein. Blood samples were put on ice and centrifuged to obtain plasma samples from which the concentration at each time point was measured by LC-MS/MS.

[3] = Homo sapiens, THP-1, PMA-differentiated THP-1 cells
[4] = Homo sapiens, PMA-differentiated THP-1 cells

IC50 [1, 3] [µM]	SMILES	other results
67.4	C=C(CC(=O)O[C@@H](C)CCCCCC)C(=O)OC(c1nn[nH]n1)C1CC1 (stereo partly drawn) [Example 166, 1-(cyclopropyl(1H-tetrazol-5-yl)methyl) 4-((S)-octan-2-yl) 2-methylenesuccinate]	–
–	C=C(CC(=O)OC1CCCCC1)C(=O)OC1CCCCC1 [Example 167, dicyclohexyl 2-methylenesuccinate]	IC50 [1, 4]: 29.1 µM
49.3	C=C(C(=O)OCC(=O)O)C(C)C(=O)OC1CCCCCCC1 (centres unmarked) [Example 168, 2-((4-(cyclooctyloxy)-3-methyl-2-methylene-4-oxobutanoyl)oxy)acetic acid]	–
–	C=C(C(=O)OCC(=O)O)C(OC)C(=O)OC1CCCCCCC1 (centres unmarked) [Example 171, 2-((4-(cyclooctyloxy)-3-methoxy-2-methylene-4-oxobutanoyl)oxy)acetic Acid]	IC50 [1, 4]: 21.8 µM
–	C=C(CC(=O)OC12CC3CC(CC(C3)C1)C2)C(=O)OCC(=O)O [Example 172, 2-((4-((-adamantan-1-yl)oxy)-2-methylene-4-oxobutanoyl)oxy)acetic Acid]	IC50 [1, 4]: 23.8 µM; concentration at 0.05 h ([2]; time 0.05 h): 23700 ng/mL; concentration at 0.133 h ([2]; time 0.133 h): 11300 ng/mL; concentration at 0.25 h ([2]; time 0.25 h): 2640 ng/mL; concentration at 0.5 h ([2]; time 0.5 h): 1210 ng/mL; concentration at 1 h ([2]; time 1 h): 75 ng/mL; concentration at 2 h ([2]; time 2 h): 9.9 ng/mL; concentration at 4 h ([2]; time 4 h): 6.1 ng/mL; concentration at 6 h ([2]; time 6 h): < 4 ng/mL; concentration at 8 h ([2]; time 8 h): < 4 ng/mL
27.6	C=C(CC(=O)O[C@H](C)CCCCC)C(=O)OCC(=O)O [Example 173, (R)-2-((4-(heptan-2-yloxy)-2-methylene-4-oxobutanoyl)oxy)acetic acid]	–
10.9	C=C(CC(=O)OC(C)CCCCCCC)C(=O)OCC(=O)O (centres unmarked) [Example 174, 2-((2-methylene-4-(nonan-2-yloxy)-4-oxobutanoyl)oxy)acetic acid]	–
12	C=C(CC(=O)OC(C)c1cc(Cl)cc(Cl)c1)C(=O)OCC(=O)O (centres unmarked) [Example 176, 2-((4-(1-(3,5-dichlorophenyl)ethoxy)-2-methylene-4-oxobutanoyl)oxy)acetic acid]	–
20.5	C=C(CC(=O)OC(C)Cc1cc(Cl)cc(Cl)c1)C(=O)OCC(=O)O (centres unmarked) [Example 177, 2-((4-((1-(3,5-dichlorophenyl)propan-2-yl)oxy)-2-methylene-4-oxobutanoyl)oxy)acetic acid]	–
8.2	C=C(CC(=O)OC(C1CCCCC1)C(F)(F)F)C(=O)OCC(=O)O (centres unmarked) [Example 180, 2-((4-(1-cyclohexyl-2,2,2-trifluoroethoxy)-2-methylene-4-oxobutanoyl)oxy)acetic acid]	–
32.8	C=C(CC(=O)OC1C2CCCC1CCC2)C(=O)OCC(=O)O (centres unmarked) [Example 181, 2-((4-(bicyclo[3.3.1]nonan-9-yloxy)-2-methylene-4-oxobutanoyl)oxy)acetic acid]	–
9.6	C=C(CC(=O)O[C@H](C)CCCCCCC)C(=O)OCC(=O)O [Example 183, (R)-2-((2-methylene-4-(nonan-2-yloxy)-4-oxobutanoyl)oxy)acetic acid]	–
33.9	C=C(CC(=O)O[C@H](C)C1CCCCC1)C(=O)OCC(=O)O [Example 184, (R)-2-((4-(1-cyclohexylethoxy)-2-methylene-4-oxobutanoyl)oxy)acetic acid]	–
3.5	C=C(CC(=O)O[C@H](C)CCCCCC)C(=O)O[C@H]1[C@@H]2CC[C@H]1CN(S(C)(=O)=O)C2 [Example 186, 1-((endo)-3-(methylsulfonyl)-3-azabicyclo[3.2.1]octan-8-yl) 4-((R)-octan-2-yl) 2-methylenesuccinate]	–
2.9	C=C(CC(=O)O[C@H](C)CCCCCC)C(=O)OCc1cc(=O)[nH]o1 [Example 187, (R)-4-(octan-2-yl) 1-((3-oxo-2,3-dihydroisoxazol-5-yl)methyl) 2-methylenesuccinate]	–
3.5	C=C(CC(=O)O[C@H](C)CCCCCC)C(=O)O[C@H](CC(=O)O)C(F)(F)F [Example 188, (R)-4,4,4-trifluoro-3-((2-methylene-4-(((R)-octan-2-yl)oxy)-4-oxobutanoyl)oxy)butanoic Acid]	–
24.3	C=C(CC(=O)OC1(C)CC2(CCCCC2)C1)C(=O)OCC(=O)O [Example 195, 2-((2-methylene-4-((2-methylspiro[3.5]nonan-2-yl)oxy)-4-oxobutanoyl)oxy)acetic acid]	–
–	C=C(CC(=O)OC1CC2CCC1(C)C2(C)C)C(=O)OCC(=O)O (stereo not drawn) [Example 196, 2-((2-methylene-4-oxo-4-(((exo)-1,7,7-trimethylbicyclo[2.2.1]heptan-2-yl)oxy)butanoyl)oxy)acetic acid]	IC50 ([1]; PMA-differentiated THP-1 cells): 18.8 µM
21.4	C=C(CC(=O)OC1C(C)(C)CCCC1(C)C)C(=O)OCC(=O)O [Example 197]	–
11.5	C=C(CC(=O)O[C@H](C)c1ccc(C(F)(F)F)cc1)C(=O)OCC(=O)O [Example 200, (R)-2-((2-methylene-4-oxo-4-(1-(4-(trifluoromethyl)phenyl)ethoxy)butanoyl)oxy) acetic acid]	–
24.6	C=C(CC(=O)O[C@@H](C)c1ccc(C(F)(F)F)cc1)C(=O)OCC(=O)O [Example 201, (S)-2-((2-methylene-4-oxo-4-(1-(4-(trifluoromethyl)phenyl)ethoxy)butanoyl)oxy) acetic acid]	–
–	C=C(CC(=O)OC1(C2CCCCC2)CC1)C(=O)OCC(=O)O [Example 202, 2-((4-(1-cyclohexylcyclopropoxy)-2-methylene-4-oxobutanoyl)oxy)acetic acid]	IC50 [1, 4]: 36.7 µM
22	C=C(CC(=O)O[C@@H](C)C1CCCCC1)C(=O)OCC(=O)O [Example 203, (S)-2-((4-(1-cyclohexylethoxy)-2-methylene-4-oxobutanoyl)oxy)acetic acid]	–
–	C=C(CC(=O)OC(C(C)(C)C)C(C)(C)C)C(=O)OCC(=O)O [Example 204, 2-((2-methylene-4-oxo-4-((2,2,4,4-tetramethylpentan-3-yl)oxy)butanoyl)oxy)acetic Acid]	IC50 [1, 4]: 41.7 µM
1.7	C=C(CC(=O)O[C@H](C)CCCCCC)C(=O)O[C@@H](CC(=O)O)C(F)(F)F [Example 205, (S)-4,4,4-trifluoro-3-((2-methylene-4-(((R)-octan-2-yl)oxy)-4-oxobutanoyl)oxy)butanoic acid]	–
19.1	C=C(CC(=O)OC1(CCCCC)CC1)C(=O)OCC(=O)O [Example 206, 2-((2-methylene-4-oxo-4-(1-pentylcyclopropoxy)butanoyl)oxy)acetic acid]	–

SMILES	IC50 [1, 3] [µM]	other results
C=C(CC(=O)OC1(C2CCCCC2)CCC1)C(=O)OCC(=O)O [Example 191, 2-((4-(1-cyclohexylcyclobutoxy)-2-methylene-4-oxobutanoyl)oxy)acetic acid]	26.6	–
C=C(CC(=O)OC1(CCCCC)CCC1)C(=O)OCC(=O)O [Example 194, 2-((2-methylene-4-oxo-4-(1-pentylcyclobutoxy)butanoyl)oxy)acetic acid]	24.8	–
C=C(CC(=O)OC1C(C)(C)CC1(C)C)C(=O)OCCC(=O)O [Example 207, 3-((2-methylene-4-oxo-4-(2,2,4,4-tetramethylcyclobutoxy)butanoyl)oxy) propanoic Acid]	100	–
